Legend:
[1] = target: T1, human PPARδ ligand binding domain (Homo sapiens, UniProt Q03181); experiment: PPAR reporter gene assay (Gal4 hybrid, PPARδ); type: cell-based; conditions: HEK-293T, reference L165,041 1 μM, tested up to 10 μM
T1 construct: expressed in transfected cells; host or cells: HEK-293T
T1 sequence (Q03181 211-439 limits assumed): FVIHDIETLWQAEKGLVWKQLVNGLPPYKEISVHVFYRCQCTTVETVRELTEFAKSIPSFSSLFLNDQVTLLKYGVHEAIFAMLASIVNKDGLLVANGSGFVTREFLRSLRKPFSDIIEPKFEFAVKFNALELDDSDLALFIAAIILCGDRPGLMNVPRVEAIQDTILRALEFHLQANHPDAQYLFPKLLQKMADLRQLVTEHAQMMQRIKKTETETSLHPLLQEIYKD
Experimental: (§3) HEK-293T cells were seeded in 96-well plates (2.5 × 10^4 cells/well) and were allowed to adhere overnight. Before transfection, medium was changed to Opti-MEM without supplements. Transient plasmid transfection was carried out using Lipofectamine LTX reagent (Invitrogen, Carlsbad, CA, United States) according to the manufacturer’s protocol with pFR-Luc (Stratagene, La Jolla, CA, United States), pRL-SV40 (Promega, Fitchburg, MA, United States) and pFA-CMV-PPAR-LBD ([Rau et al., 2006]). 5 h after transfection, medium was changed to Opti-MEM supplemented with penicillin (100 U/mL) and streptomycin (100 μg/mL), now additionally containing 0.1% DMSO and the respective test compound or 0.1% DMSO alone as untreated control. Each concentration was tested in triplicates and each experiment was repeated independently at least four times. Following overnight (12–16 h) incubation with the test compounds, cells were assayed for luciferase activity using the Dual-Glo^TM Luciferase Assay System (Promega, Fitchburg, MA, United States) according to the manufacturer’s protocol. Luminescence was measured with an Infinite M200 luminometer (Tecan Group Ltd., Männedorf, Switzerland). Normalization of transfection efficiency and cell growth was done by division of firefly luciferase data by renilla luciferase data and multiplying the value by 1000 resulting in relative light units (RLU). Fold activation was obtained by dividing the mean RLU of a test compound at a respective concentration by the mean RLU of untreated control. Relative activation was obtained by dividing the fold activation of a test compound at a respective concentration by the fold activation of the respective PPARα, γ or δ full agonist GW-7647, pioglitazone or L165,041 at 1 μM. EC50 and standard deviation were calculated with the mean relative activation values of at least four independent experiments by SigmaPlot 10.0 (Systat Software GmbH, Erkrath, Germany) using a four parameter logistic regression. […]

[2] = target: T2, sEH (HEP-G2) (Homo sapiens, UniProt P34913); experiment: sEH activity in HEP-G2 cell lysates (14(15)-EET-d11 to DHET-d11, LC-MS/MS); type: biochemical; conditions: HEP-G2 cell homogenate, (±)14(15)-EET-d11 substrate, DHET formation by LC-MS/MS
T2 construct: 1 μg of total cell homogenate diluted in 100 μl of PBS; endogenous in cells; host or cells: HEP-G2
T2 sequence (P34913 1-555): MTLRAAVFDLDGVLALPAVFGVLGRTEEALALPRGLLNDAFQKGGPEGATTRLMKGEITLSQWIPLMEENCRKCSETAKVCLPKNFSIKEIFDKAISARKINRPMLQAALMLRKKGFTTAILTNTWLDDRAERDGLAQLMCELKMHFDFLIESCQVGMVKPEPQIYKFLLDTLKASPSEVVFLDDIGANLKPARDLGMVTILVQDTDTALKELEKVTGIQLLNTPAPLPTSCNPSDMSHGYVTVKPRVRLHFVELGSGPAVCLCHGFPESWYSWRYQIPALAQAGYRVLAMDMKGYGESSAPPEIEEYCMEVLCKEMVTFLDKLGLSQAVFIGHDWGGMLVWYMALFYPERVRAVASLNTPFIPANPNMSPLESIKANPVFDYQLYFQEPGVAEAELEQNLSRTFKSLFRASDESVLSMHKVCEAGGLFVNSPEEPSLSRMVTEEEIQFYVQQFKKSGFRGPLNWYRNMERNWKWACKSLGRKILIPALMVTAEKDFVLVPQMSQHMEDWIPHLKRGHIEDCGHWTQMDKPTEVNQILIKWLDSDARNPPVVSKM
Experimental: Quantification of cellular sEH metabolic activity was performed as described by [Zha et al. (2014)]. For this, HEP-G2 cells were harvested, washed twice with PBS and sonicated in PBS for disruption of cell integrity. Then, 1 μg of total cell homogenate diluted in 100 μl of PBS containing 0.1 mg/ml BSA was incubated with the compounds or vehicle for 15 min at 37°C. After this, 25 ng (±)14(15)-EET-d11 (Cayman Chemical, Ann Arbor, MI, United States) were added per sample and the incubation was continued for additional 10 min at 37°C. A blank was performed using PBS (containing 0,1 mg/mL BSA). The reactions were stopped by adding 100 μL of ice cold methanol. After centrifugation (2000 rpm, 4°C, 5 min), supernatants were analyzed by LC-MS/MS and the amounts of (±)14(15)-EET-d11 and the corresponding (±)14(15)-DHET-d11 were determined.
14(15)-EET-d11 and 14(15)-DHET-d11 content of the extracted samples were analyzed employing liquid chromatography tandem mass spectroscopy (LC-MS/MS). The LC/MS-MS system comprised an API 5500 QTrap (Sciex, Darmstadt, Germany), equipped with a Turbo-V-source operating in negative ESI mode, an Agilent 1200 binary HPLC pump and degasser (Agilent, Waldbronn, Germany) and an HTC Pal autosampler (Chromtech, Idstein, Germany) fitted with a 25 μL LEAP syringe (Axel Semrau GmbH, Sprockhövel, Germany). High purity nitrogen for the mass spectrometer was produced by a NGM 22-LC/MS nitrogen generator (cmc Instruments, Eschborn, Germany). All substances were obtained from Cayman Chemical, Ann Arbor, MI, United States. Stock solutions with 2,500 ng/mL of both analytes were prepared in methanol. Working standards were obtained by further dilution with a concentration range of 0.1–250 ng/mL for 14(15)-EET-d11 and 14(15)-DHET-d11. Sample extraction was performed with liquid–liquid-extraction. Therefore, 150 μL of matrix homogenates were gently mixed with 20 μL of internal standard [14(15)-EET and 14(15)-DHET all with a concentration of 100 ng/ml in methanol], and were extracted twice with 600 μL of ethyl acetate. Samples for standard curve and quality control were prepared similarly, instead of 150 μL of matrix homogenates, 150 μL PBS were added. Further 20 μL methanol, 20 μL working standard and 20 μL internal standard were added. The organic phase was removed at a temperature of 45°C under a gentle stream of nitrogen. The residues were reconstituted with 50 μL of methanol/water/(50:50, v/v), centrifuged for 2 min at 10,000 g and then transferred to glass vials (Macherey-Nagel, Düren, Germany) prior to injection into the LC-MS/MS system. For the chromatographic separation a Gemini NX C18 column and pre-column were used (150 mm × 2 mm i.d., 5 μm particle size and 110 Å pore size from Phenomenex, Aschaffenburg, Germany). A linear gradient was employed at a flow rate of 0.5 mL/min mobile phase with a total run time of 17.5 min. Mobile phase was A water/ammonia (100:0.05, v/v) and B acetonitrile/ammonia (100:0.05, v/v). The gradient started from 85% A to 10% within 12 min. This was held for 1 min at 10% A. Within 0.5 min the mobile phase shifted back to 85% A and was held for 3.5 min to equilibrate the column for the next sample. The injection volume of samples was 20 μL. Quantification was performed with Analyst Software V 1.5.1 (Sciex, Darmstadt, Germany) employing the internal standard method (isotope- dilution mass spectrometry). Ratios of analyte peak area and internal standard area (y-axis) were plotted against concentration (x-axis) and calibration curves were calculated by least square regression with 1/concentration^2 weighting.

[3] = target: T3, recombinant human sEH (Homo sapiens, UniProt P34913); experiment: Recombinant sEH activity (PHOME fluorescence assay); type: biochemical; conditions: PHOME 50 μM, 30 min preincubation at RT, read-out: sEH rec. IC50
T3 sequence (P34913 1-555): T2 sequence (P34913 1-555)
Experimental: For determination of IC50 values of recombinant human sEH a 96-well fluorescence-based assay system was used as described before ([Blöcher et al., 2016a]). In brief, non-fluorescent PHOME (3 phenylcyano-(6-methoxy-2-naphthalenyl)methyl ester 2-oxiraneacetic acid, Cayman Chemicals, Ann Arbor, MI, United States) was used as substrate, which is hydrolyzed by sEH to the fluorescent 6-methoxynaphthaldehyde ([Rau et al., 2006]). The formation of the fluorescent product was measured (λem = 330 nm, λex = 465 nm) by an Infinite F200 Pro plate reader (Tecan Group Ltd., Männedorf, Switzerland). For that purpose, 2 μg recombinant human sEH in 100 μl bis-Tris buffer (pH 7, 0.1 mg/mL BSA, 0.01% Triton-X 100) was applied per well. This protein solution was then incubated with different concentrations of the test compounds for 30 min at RT. After this, 10 μL of the substrate were added (final concentration 50 μM). The formation of 6-methoxynaphthaldehyde was monitored for 30 min. All concentrations were tested in triplicate wells.

[4] = target: T4, human PPARα ligand binding domain (Homo sapiens, UniProt Q07869); experiment: PPAR reporter gene assay (Gal4 hybrid, PPARα); type: cell-based; conditions: HEK-293T, reference GW7647 1 μM, tested up to 10 μM
T4 construct: expressed in transfected cells; host or cells: HEK-293T
T4 sequence (Q07869 239-466 limits assumed): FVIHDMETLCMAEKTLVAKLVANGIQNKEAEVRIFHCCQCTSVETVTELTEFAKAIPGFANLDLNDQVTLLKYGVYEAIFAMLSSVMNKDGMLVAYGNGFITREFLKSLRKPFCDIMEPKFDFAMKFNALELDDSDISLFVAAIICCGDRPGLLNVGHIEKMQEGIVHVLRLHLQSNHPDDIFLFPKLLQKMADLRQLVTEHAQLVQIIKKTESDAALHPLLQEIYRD
Experimental: as §3

[5] = tested on: CysLT1R; conditions: Table 2 comparison column; no method, no reference given; cited from earlier work
[6] = tested on: PPARγ, FABP-4 and CD36 protein in 3T3-L1 adipocytes; experiment: Protein expression in differentiated 3T3-L1 adipocytes (Western Blot); type: cell-based, murine; conditions: rosiglitazone 2 μM
Experimental: (§1) 3T3-L1 cells were differentiated into adipocytes for 14 days according to the protocol of [Zebisch et al. (2012)]. For this, cells were seeded in 6-well plates ([…]) and differentiation was induced after 48 h by addition of a differentiation cocktail containing 1 μg/mL insulin, 0.25 μM dexamethasone and 0.5 mM isobutylmethylxanthine (IBMX) in DMEM supplemented with 10% FCS and 1% PS. […] After 2 days, medium was replaced by DMEM supplemented with 10% FCS, 1% PS and 1 μg/mL insulin for 2 more days. Afterwards, cells were kept for lipid droplet accumulation in DMEM containing 10% FCS and 1% PS until day 15. Media were replaced every other day.
(§2) Total 3T3-L1 or HEP-G2 cell lysates were prepared in lysis buffer (20 mM Tris-HCl, pH 7.4, 150 mM NaCl, 2 mM EDTA, 1% Triton X-100, 0.5% NP-40) supplemented with protease and phosphatase inhibitors (PhosSTOP^TM + cOmplete^TM Mini, Roche Diagnostics GmbH, Mannheim, Germany). Protein concentrations were quantified using the Pierce^TM BCA Protein Assay Kit (Thermo Scientific, Waltham, MA, United States). Total protein (30 μg/lane) was separated by SDS-polyacrylamide gel electrophoresis and transferred to nitrocellulose membranes (GE Healthcare Life Sciences, Little Chalfont, United Kingdom). Membranes were blocked with Odyssey blocking reagent (LI-COR Biosciences, Bad Homburg, Germany) for 1 h at room temperature. Ensuing, membranes were incubated with antibodies against CD36 (EPR6573, Abcam, Cambridge, United Kingdom), PPARγ (E-8, Santa Cruz Biotechnology, Heidelberg, Germany), FABP-4 (C-15, Santa Cruz Biotechnology, Heidelberg, Germany) or PPARγ Ser273 (Bioss Antibodies Inc., Woburn, MA, United States) overnight at 4°C. Afterwards, membranes were washed and incubated with fluorescence conjugated secondary antibodies (IRDye, LI-COR Biosciences, Bad Homburg, Germany). Protein antibody complexes were visualized on the Odyssey Infrared Imaging System (LI-COR Biosciences, Bad Homburg, Germany). β-actin (I-19, goat, polyclonal, Santa Cruz Biotechnology, Heidelberg, Germany) was used as loading control. The density of the immune reactive bands was analyzed using the Image Studio 5.2 software (LI-COR Biosciences, Bad Homburg, Germany).
As master regulator of adipocyte differentiation in men and mice, PPARγ plays a crucial role in the cell’s commitment to the adipocyte lineage by controlling important functions such as intracellular biosynthesis, transport and accumulation of lipids. Murine 3T3-L1 fibroblasts are a well characterized in vitro tool to study PPARγ induced adipocyte differentiation. These cells can be differentiated from fibroblasts into adipocytes by an activation cocktail (0.5 mM IBMX, 1 μg/mL insulin, 0.25 μM dexamethasone) together with the potential PPARγ agonist. Upon differentiation, different parameters such as lipid accumulation and PPARγ target gene expression can be assessed to investigate the PPARγ activating potential of the compounds of interest. […] Rosiglitazone (2 μM) was used as positive control. This was followed by insulin (1 μg/mL) treatment for another 48 h. After this, cells were kept in growth medium for a week to complete the differentiation process and allow intracellular lipid accumulation. Subsequently, the cells were stained with Oil Red O solution to investigate the extent of cytoplasmic lipid droplet accumulation as a measure for cell differentiation.
In addition to mRNA expression, the protein expression levels of the two PPARγ target genes FABP-4 and CD36 in differentiated 3T3-L1 cells after 14 days were investigated. For this, total protein lysates were separated by gel electrophoresis followed by Western Blotting (Figure 3E,F and Supplementary Figures S2A,B).

[7] = tested on: PPARγ2 phosphorylation at serine 273; experiment: TNFα triggered PPARγ Ser273 phosphorylation in 3T3-L1 adipocytes (Western Blot); type: cell-based, murine; conditions: zafirlukast 1 or 10 μM or rosiglitazone 2 μM for 45 min, then TNFα 50 ng/mL 30 min
Experimental: as §2, with “Ensuing, membranes were incubated with antibodies against CD36 (EPR6573, Abcam, Cambridge, United Kingdom), PPARγ (E-8, Santa Cruz Biotechnology, Heidelberg, Germany), FABP-4 (C-15, Santa Cruz Biotechnology, Heidelberg, Germany) or PPARγ Ser273 (Bioss Antibodies Inc., Woburn, MA, United States) overnight at 4°C.” left out, “Protein antibody complexes were visualized on the Odyssey Infrared Imaging System (LI-COR Biosciences, Bad Homburg, Germany). β-actin (I-19, goat, polyclonal, Santa Cruz Biotechnology, Heidelberg, Germany) was used as loading control.” left out
We induced this post-translational modification by short-term treatment of the differentiated cells with the cytokine TNFα, generating a pro-inflammatory milieu. […] For this, we used an assay system in which the recruitment of the fluorescence-tagged PPARγ coactivator CBP to the PPARγ-LBD was assessed by time-resolved FRET technique in presence and absence of rosiglitazone.

[8] = tested on: 3T3-L1 cells; experiment: 3T3-L1 adipocyte differentiation, Oil Red O lipid accumulation; type: cell-based, murine; conditions: differentiation cocktail plus zafirlukast or montelukast 1, 5, 10 μM or rosiglitazone 2 μM; 14 days
Experimental: as §1
Differentiated 3T3-L1 cells were washed with PBS and subsequently fixed for 60 min with formaldehyde (4% in PBS). Afterwards, cells were thoroughly rinsed with 60% isopropanol and incubated with Oil Red O solution (0.3% in 60% isopropanol) for 120 min. This was followed by the removal of the staining solution and thorough rinsing of the cell layer with ultrapure water. Finally, the plates were dried and pictures of the stained cell layers were taken.
For quantification of the accumulated dye, 3T3-L1 cells were seeded in 24-well plates (0.55 × 10^5/well) instead of 6-wells and the differentiation was carried out as described in the section ‘Adipocyte differentiation’. After 14 days of differentiation, cells were fixed and stained as described above. […] 100 μl of dye extract were transferred to a 96-well plate and absorbance was measured (λabs = 510 nm) by an Infinite F200 plate reader (Tecan Group Ltd., Männedorf, Switzerland). […]
As master regulator of adipocyte differentiation in men and mice, PPARγ plays a crucial role in the cell’s commitment to the adipocyte lineage by controlling important functions such as intracellular biosynthesis, transport and accumulation of lipids. […] Upon differentiation, different parameters such as lipid accumulation and PPARγ target gene expression can be assessed to investigate the PPARγ activating potential of the compounds of interest. […]

| SMILES | PPARδ EC50 [1] | IC50 [2] [µM] | IC50 [3] [µM] | PPARα EC50 [4] | IC50 [5] [µM] | PPARγ isoforms γ1 and γ2 protein expression ([6]; 3T3-L1 differentiated with cocktail plus compound) | Protein expression of PPARγ target genes FABP-4 and CD36 ([6]; after 14 days) | TNFα induced phosphorylation of PPARγ2 at serine 273 [7] | Lipid accumulation (Oil Red O staining) [8] |
| --- | --- | --- | --- | --- | --- | --- | --- | --- | --- |
| O=C(Nc1cccc2c(=O)cc(-c3nnn[nH]3)oc12)c1ccc(OCCCCc2ccccc2)cc1 [Pranlukast, pranlukast] | i.a. @ 10 μM | 14.1 | 8.86 ± 0.19 | i.a. @ 10 μM | 0.004 | – | – | – | – |
| CN(CCOc1ccc(CC2SC(=O)NC2=O)cc1)c1ccccn1 (stereo not drawn) [rosiglitazone] | – | – | – | – | – | upregulated the protein levels | upregulated the expression of all target genes investigated with high potency | inhibited this phosphorylation, although this effect was not significant | strong accumulation of lipid droplets |

Reference: PMC6435570, “Zafirlukast Is a Dual Modulator of Human Soluble Epoxide Hydrolase and Peroxisome Proliferator-Activated Receptor γ” (Frontiers in Pharmacology, 2019)
